According to patent US20220024921A1, “1,3,4-OXADIAZOLONE COMPOUND AND PHARMACEUTICAL” (NIPPON SHINYAKU CO., LTD., priority 2018, published 2022):
Where a name gives a salt, the structure may show the parent alone.

Assays:
[1] = target: T1, PIM1 serine/threonine kinase (Homo sapiens, UniProt P11309); assay: PIM1 serine/threonine kinase inhibitory effect; format: biochemical; conditions: PIM1 serine/threonine kinase activity; ATP 40 μM; 30° C., 30 minutes
T1 construct: purchased Carna Bioscience, Inc
T1 sequence (P11309 whole entry): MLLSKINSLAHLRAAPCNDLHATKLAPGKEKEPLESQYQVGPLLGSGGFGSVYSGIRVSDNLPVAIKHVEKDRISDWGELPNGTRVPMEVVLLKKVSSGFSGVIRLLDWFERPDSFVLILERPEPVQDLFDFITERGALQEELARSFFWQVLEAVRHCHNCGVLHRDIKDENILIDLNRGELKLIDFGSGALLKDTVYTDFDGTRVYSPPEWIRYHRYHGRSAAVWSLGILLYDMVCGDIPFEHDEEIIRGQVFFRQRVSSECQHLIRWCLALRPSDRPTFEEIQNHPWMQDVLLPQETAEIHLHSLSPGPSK
How it was run: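 Compounds were tested in duplicate from 0.01 to 10000 nM final against PIM1 kinase (0.15 μg/ml). The reaction ran for 30 minutes at 30° C with 40 μM ATP and 0.5 μM biotin-tagged substrate at pH 7.0. Phosphorylation was read by time-resolved FRET (OD665/OD620) after 1 h; IC50 by non-linear fit.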

[2] = target: PIM1 transgenic cells (Ba/F3) (Homo sapiens, UniProt P11309); assay: Proliferation inhibitory effect on PIM1 transgenic cells; format: cell-based, mouse; conditions: proliferation inhibition, 72 hours, Cell Counting Kit-8, read-out: PIM1 IC50
PIM1 transgenic cells (Ba/F3), sequence (P11309 whole entry, stated change not applied): as the sequence (P11309 whole entry) above
How it was run: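 Mouse Ba/F3 pro-B cells were retrovirally transduced with human PIM1 so that their proliferation depends on PIM1. Cells were treated with compound at 1–10000 nM final for 72 h, then read by CCK-8 (OD450−OD650). Inhibition was set against DMSO (0%) and no-cell blank (100%), and IC50 was obtained by two-parameter logistic regression.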

Compound	IC50 [1] [µM]	GI50 [2] [µM]
CN[C@H]1C[C@@H]([C@H](C)Nc2cc(-c3n[nH]c(=O)o3)ccc2C(F)(F)F)C1 [Example 192, 5-[3-({(1S)-1-[(1s,3R)-3-(methylamino)cyclobutyl]ethyl}amino)-4-(trifluoromethyl)phenyl]-1,3,4-oxadiazol-2(3H)-one hydrochloride]	0.0026	0.047
CCC1(CNc2cc(-c3n[nH]c(=O)o3)ccc2C(F)(F)F)CCNCC1 [Example 122, 5-[3-{[(4-ethylpiperidin-4-yl)methyl]amino}-4-(trifluoromethyl)phenyl]-1,3,4-oxadiazol-2(3H)-one hydrochloride]	0.0065	0.22
O=c1[nH]nc(-c2ccc(C(F)(F)F)c(CCC3CCNCC3)c2)o1 [Example 26, 5-{3-[2-(piperidin-4-yl)ethyl]-4-(trifluoromethyl)phenyl}-1,3,4-oxadiazol-2(3H)-one hydrochloride]	0.012	0.91
C[C@H](Nc1cc(-c2n[nH]c(=O)o2)ccc1C(F)(F)F)C1CCCNCCC1 [Example 162, 5-[3-{[(1S)-1-(azocan-5-yl)ethyl]amino}-4-(trifluoromethyl)phenyl]-1,3,4-oxadiazol-2(3H)-one hydrochloride]	0.0087	0.14
NCC[C@H]1CC[C@H](Nc2cc(-c3n[nH]c(=O)o3)ccc2C(F)(F)F)CC1 [Example 44, 5-[3-{[(1r,4r)-4-(2-aminoethyl)cyclohexyl]amino}-4-(trifluoromethyl)phenyl]-1,3,4-oxadiazol-2(3H)-one hydrochloride]	0.0042	0.33
C[C@@H]1CNCC[C@@H]1[C@H](C)Nc1cc(-c2n[nH]c(=O)o2)cc(F)c1Cl [Example 222, 5-[4-chloro-3-fluoro-5-({(1S)-1-[(3S,4S)-3-methylpiperidin-4-yl]ethyl}amino)phenyl]-1,3,4-oxadiazol-2(3H)-one]	0.0024	0.019
CC[C@H](Nc1cc(-c2n[nH]c(=O)o2)ccc1C(F)(F)F)C1CCNCC1 [Example 138, 5-[3-{[(1S)-1-(piperidin-4-yl)propyl]amino}-4-(trifluoromethyl)phenyl]-1,3,4-oxadiazol-2(3H)-one hydrochloride]	0.004	0.073
C[C@@H]1CN([C@@H](C)[C@H]2CC[C@H](N)CC2)c2cc(-c3n[nH]c(=O)o3)cc(F)c2O1 [Example 253, 5-[(2R)-4-{(1S)-1-[(1r,4S)-4-aminocyclohexyl]ethyl}-8-fluoro-2-methyl-3,4-dihydro-2H-1,4-benzoxazin-6-yl]-1,3,4-oxadiazol-2(3H)-one hydrochloride]	0.003	0.081
O=c1[nH]nc(-c2ccc(C(F)(F)F)c(NCC3CCNCC3)c2)o1 [Example 48, 5-[3-{[(piperidin-4-yl)methyl]amino}-4-(trifluoromethyl)phenyl]-1,3,4-oxadiazol-2(3H)-one hydrochloride]	0.0044	1.2
C[C@@H](C1CCNCC1)N1CCOc2c(F)cc(-c3n[nH]c(=O)o3)cc21 [Example 248, 5-{8-fluoro-4-[(1S)-1-(piperidin-4-yl)ethyl]-3,4-dihydro-2H-1,4-benzoxazin-6-yl}-1,3,4-oxadiazol-2(3H)-one]	0.01	0.25
N[C@H]1CC[C@H](Nc2cc(-c3n[nH]c(=O)o3)cc(F)c2Cl)CC1 [Example 40, 5-(3-{[(1r,4r)-4-aminocyclohexyl]amino}-4-chloro-5-fluorophenyl)-1,3,4-oxadiazol-2(3H)-one hydrochloride]	0.0062	0.44
O=c1[nH]nc(-c2ccc(C(F)(F)F)c(NCCC3CCCNC3)c2)o1 (stereo not shown) [Example 60, 5-[3-{[2-(piperidin-3-yl)ethyl]amino}-4-(trifluoromethyl)phenyl]-1,3,4-oxadiazol-2(3H)-one hydrochloride]	0.013	3.1
C[C@H](Nc1cc(-c2n[nH]c(=O)o2)ccc1C(F)(F)F)C1(C)CCNCC1 [Example 144, 5-[3-{[(1S)-1-(4-methylpiperidin-4-yl)ethyl]amino}-4-(trifluoromethyl)phenyl]-1,3,4-oxadiazol-2(3H)-one hydrochloride]	0.0029	0.064
O=c1[nH]nc(-c2cc(Br)c3cnn(CC4CCNCC4)c3c2)o1 [Example 124, 5-{4-bromo-1-[(piperidin-4-yl)methyl]-1H-indazol-6-yl}-1,3,4-oxadiazol-2(3H)-one hydrochloride]	0.026	4.1
CN[C@H]1CC[C@H](CN(C)c2cc(-c3n[nH]c(=O)o3)ccc2C(F)(F)F)CC1 [Example 132, 5-[3-(methyl{[(1r,4r)-4-(methylamino)cyclohexyl]methyl}amino)-4-(trifluoromethyl)phenyl]-1,3,4-oxadiazol-2(3H)-one hydrochloride]	0.017	0.44
C[C@H](Nc1cc(-c2n[nH]c(=O)o2)ccc1C(F)(F)F)C1CC2(CNC2)C1 [Example 149, 5-[3-{[(1S)-1-(2-azaspiro[3.3]heptan-6-yl)ethyl]amino}-4-(trifluoromethyl)phenyl]-1,3,4-oxadiazol-2(3H)-one trifluoroacetate]	0.0091	0.38
CN[C@H]1C[C@@H]([C@H](C)Nc2cc(-c3n[nH]c(=O)o3)cc(F)c2OC(F)(F)F)C1 [Example 208, 5-[3-fluoro-5-({(1S)-1-[(1s,3R)-3-(methylamino)cyclobutyl]ethyl}amino)-4-(trifluoromethoxy)phenyl]-1,3,4-oxadiazol-2(3H)-one]	0.0085	0.13
N[C@H]1CC[C@H](Nc2cc(-c3n[nH]c(=O)o3)cc(F)c2C(F)(F)F)CC1 [Example 36, 5-[3-{[(1r,4r)-4-aminocyclohexyl]amino}-5-fluoro-4-(trifluoromethyl)phenyl]-1,3,4-oxadiazol-2(3H)-one hydrochloride]	0.0031	0.57
N[C@H]1CC[C@@H](Nc2cc(-c3n[nH]c(=O)o3)ccc2Cl)CC1 [Example 33, 5-(3-{[(1s,4s)-4-aminocyclohexyl]amino}-4-chlorophenyl)-1,3,4-oxadiazol-2(3H)-one hydrochloride]	0.0062	0.73
O=c1[nH]nc(-c2ccc(C(F)(F)F)c(C#CC3CCNCC3)c2)o1 [Example 29, 5-{3-[(piperidin-4-yl)ethynyl]-4-(trifluoromethyl)phenyl}-1,3,4-oxadiazol-2(3H)-one hydrochloride]	0.018	1.1
N[C@H]1CC[C@H](CNc2cc(-c3n[nH]c(=O)o3)ccc2-c2ccccc2)CC1 [Example 71, 5-[2-({[(1r,4r)-4-aminocyclohexyl]methyl}amino)[1,1′-biphenyl]-4-yl]-1,3,4-oxadiazol-2(3H)-one hydrochloride]	0.14	4.2
CCC(Nc1cc(-c2n[nH]c(=O)o2)ccc1C(F)(F)F)C1CCNCC1 (stereo not shown) [Example 56, 5-[3-{[1-(piperidin-4-yl)propyl]amino}-4-(trifluoromethyl)phenyl]-1,3,4-oxadiazol-2(3H)-one hydrochloride]	0.007	0.2
C[C@H](Nc1cc(-c2n[nH]c(=O)o2)ccc1C(F)(F)F)[C@@H]1[C@@H]2CC[C@H]1CNC2 [Example 155, 5-[3-({(1S)-1-[(1R,5S,8r)-3-azabicyclo[3.2.1]octan-8-yl]ethyl}amino)-4-(trifluoromethyl)phenyl]-1,3,4-oxadiazol-2(3H)-one hydrochloride]	0.0058	0.092
